These results are taken from US20020026053A1, “Novel 3-(substituted) -2- indolinones compounds and use thereof as inhibitors of protein kinase activity” (priority 1997, published 2002).

In the assay the target is T1, Met receptor (EGFR/Met chimeric cells, EMR) (Homo sapiens, UniProt P08581).
T1 construct: expressed in transfected cells; the other entry of the earlier key: EGFR (P00533, Epidermal growth factor receptor)
Put plainly: Met Autophosphorylation Assay. It is filed as biochemical. Conditions: protocol P.130. Put shortly:
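Transiently transfected EGFR/Met chimeric (EMR) cells were lysed in HNTG with 1 mM PMSF. Met was captured on plates coated with goat anti-rabbit IgG, then rabbit anti-Met (C-28), using 90 μg lysate/100 μl for 60 min at room temperature. Phosphotyrosine was read by ELISA.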

T1 sequence (P08581 with tags, fused parts or gaps): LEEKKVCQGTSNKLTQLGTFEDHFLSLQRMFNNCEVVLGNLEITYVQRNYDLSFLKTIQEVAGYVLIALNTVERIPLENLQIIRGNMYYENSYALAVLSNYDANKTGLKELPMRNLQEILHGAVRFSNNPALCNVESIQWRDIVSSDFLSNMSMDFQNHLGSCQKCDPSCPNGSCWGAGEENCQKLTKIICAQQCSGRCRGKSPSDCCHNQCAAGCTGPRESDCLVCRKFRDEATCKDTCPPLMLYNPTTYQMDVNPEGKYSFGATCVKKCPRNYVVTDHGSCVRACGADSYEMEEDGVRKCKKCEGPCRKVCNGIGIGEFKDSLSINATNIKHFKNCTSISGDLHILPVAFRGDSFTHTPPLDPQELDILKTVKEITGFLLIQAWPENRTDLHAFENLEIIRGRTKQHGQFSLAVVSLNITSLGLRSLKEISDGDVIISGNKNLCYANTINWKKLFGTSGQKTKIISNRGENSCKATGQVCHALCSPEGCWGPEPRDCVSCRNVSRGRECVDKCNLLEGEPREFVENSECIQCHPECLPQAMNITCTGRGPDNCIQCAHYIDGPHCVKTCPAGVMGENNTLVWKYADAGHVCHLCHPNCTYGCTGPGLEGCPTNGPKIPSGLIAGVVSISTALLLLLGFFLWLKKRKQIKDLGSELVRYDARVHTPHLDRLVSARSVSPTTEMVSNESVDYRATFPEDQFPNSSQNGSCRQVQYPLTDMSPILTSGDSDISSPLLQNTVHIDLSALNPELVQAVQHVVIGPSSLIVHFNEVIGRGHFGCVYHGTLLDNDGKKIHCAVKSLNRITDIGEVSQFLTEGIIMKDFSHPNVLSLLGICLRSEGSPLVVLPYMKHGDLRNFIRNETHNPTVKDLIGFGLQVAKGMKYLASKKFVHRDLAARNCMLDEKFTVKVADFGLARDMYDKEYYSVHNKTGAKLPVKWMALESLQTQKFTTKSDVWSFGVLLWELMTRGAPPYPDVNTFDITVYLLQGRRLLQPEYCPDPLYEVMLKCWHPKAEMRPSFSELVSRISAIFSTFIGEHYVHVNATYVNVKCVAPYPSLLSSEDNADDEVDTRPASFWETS

Consider `Cc1c(Br)cc(Br)c2c1C(=Cc1cc(O)cc(O)c1)C(=O)N2` [10738/H07], for which the “Met Kinase % Inhibition (P.130)” value is given as 77.2%.

Consider `Cc1c(Br)cc(Br)c2c1C(=Cc1ccc(Cl)c(Cl)c1)C(=O)N2` [10738/H08], for which the “Met Kinase % Inhibition (P.130)” value was 20.7%.

In the case of `COc1ccccc1C=C1C(=O)Nc2c(Br)cc(Br)c(C)c21` [10738/H09], the “Met Kinase % Inhibition (P.130)” value turned out to be 52.3%.

In the case of `Cc1c(Br)cc(Br)c2c1C(=Cc1ccc(C(C)C)cc1)C(=O)N2` [10738/H10], the “Met Kinase % Inhibition (P.130)” value came out at 27.7%.

As for `CCCOc1ccc(C=C2C(=O)Nc3c(Br)cc(Br)c(C)c32)cc1` [10738/H11], the “Met Kinase % Inhibition (P.130)” value is 24.9%.

As for `COc1ccc(C=C2C(=O)Nc3c(Br)cc(Br)cc32)cc1C` [10739/A02], the “Met Kinase % Inhibition (P.130)” value came out at 41.8%.

As to `O=C1Nc2c(Br)cc(Br)cc2C1=Cc1cccc(OCc2ccccc2)c1` [10739/A03], the “Met Kinase % Inhibition (P.130)” value is recorded as 37.4%.

In the case of `O=C1Nc2c(Br)cc(Br)cc2C1=Cc1ccc(OCc2ccccc2)cc1` [10739/A04], the “Met Kinase % Inhibition (P.130)” value was found to be 45.2%.

Regarding `O=C1Nc2c(Br)cc(Br)cc2C1=CC1COc2ccccc2O1` (stereo not shown) [10739/A05], the “Met Kinase % Inhibition (P.130)” value came to 36.5%.

With `O=C1Nc2c(Br)cc(Br)cc2C1=Cc1ccc(O)cc1Cl` [10739/A06], the “Met Kinase % Inhibition (P.130)” value amounted to 70.1%.

Turning to `O=C1Nc2c(Br)cc(Br)cc2C1=Cc1cc(O)c(O)c(O)c1` [10739/A07], the “Met Kinase % Inhibition (P.130)” value is recorded as 99.9%.

In the case of `COc1ccc(Oc2cccc(C=C3C(=O)Nc4c(Br)cc(Br)cc43)c2)cc1` [10739/A08], the “Met Kinase % Inhibition (P.130)” value is on record as 39.9%.

`CN(C)CCCOc1ccc(C=C2C(=O)Nc3c(Br)cc(Br)cc32)cc1` [10739/A09]: the “Met Kinase % Inhibition (P.130)” value was determined as 60.4%.

Consider `O=C1Nc2c(Br)cc(Br)cc2C1=Cc1ccoc1` [10739/A10], for which the “Met Kinase % Inhibition (P.130)” value worked out at 81.2%.

For `O=C1Nc2c(Br)cc(Br)cc2C1=Cc1ccc(CO)o1` [10739/A11], the “Met Kinase % Inhibition (P.130)” value turned out to be 82.8%.

For the compound `COc1ccc(C=C2C(=O)Nc3ccc(I)cc32)cc1C` [10739/B02], the “Met Kinase % Inhibition (P.130)” value is reported as 68.1%.

For `O=C1Nc2ccc(I)cc2C1=Cc1cccc(OCc2ccccc2)c1` [10739/B03], the “Met Kinase % Inhibition (P.130)” value is 62.4%.

Turning to `O=C1Nc2ccc(I)cc2C1=Cc1ccc(OCc2ccccc2)cc1` [10739/B04], the “Met Kinase % Inhibition (P.130)” value amounted to 65.1%.

Take `O=C1Nc2ccc(I)cc2C1=CC1COc2ccccc2O1` (stereo not shown) [10739/B05]: the “Met Kinase % Inhibition (P.130)” value is reported as 74.0%.

As to `O=C1Nc2ccc(I)cc2C1=Cc1ccc(O)cc1Cl` [10739/B06], the “Met Kinase % Inhibition (P.130)” value is 68.1%.

For `O=C1Nc2ccc(I)cc2C1=Cc1cc(O)c(O)c(O)c1` [10739/B07], the “Met Kinase % Inhibition (P.130)” value stood at 98.7%.

Take `COc1ccc(Oc2cccc(C=C3C(=O)Nc4ccc(I)cc43)c2)cc1` [10739/B08]: the “Met Kinase % Inhibition (P.130)” value is listed as 65.8%.

As to `CN(C)CCCOc1ccc(C=C2C(=O)Nc3ccc(I)cc32)cc1` [10739/B09], the “Met Kinase % Inhibition (P.130)” value is given as 63.5%.

With `O=C1Nc2ccc(I)cc2C1=Cc1ccoc1` [10739/B10], the “Met Kinase % Inhibition (P.130)” value amounted to 70.6%.

Consider `O=C1Nc2ccc(I)cc2C1=Cc1ccc(CO)o1` [10739/B11], for which the “Met Kinase % Inhibition (P.130)” value was found to be 84.9%.

Consider `COc1ccc(C=C2C(=O)Nc3ccc(Br)c(C)c32)cc1C` [10739/C02], for which the “Met Kinase % Inhibition (P.130)” value is 34.7%.

`Cc1c(Br)ccc2c1C(=Cc1cccc(OCc3ccccc3)c1)C(=O)N2` [10739/C03]: the “Met Kinase % Inhibition (P.130)” value was determined as 10.9%.

Turning to `Cc1c(Br)ccc2c1C(=Cc1ccc(OCc3ccccc3)cc1)C(=O)N2` [10739/C04], the “Met Kinase % Inhibition (P.130)” value was −3.6%.

On to `Cc1c(Br)ccc2c1C(=CC1COc3ccccc3O1)C(=O)N2` (stereo not shown) [10739/C05], for which the “Met Kinase % Inhibition (P.130)” value turned out to be 34.7%.

`Cc1c(Br)ccc2c1C(=Cc1ccc(O)cc1Cl)C(=O)N2` [10739/C06]: the “Met Kinase % Inhibition (P.130)” value is 56.1%.

Consider `Cc1c(Br)ccc2c1C(=Cc1cc(O)c(O)c(O)c1)C(=O)N2` [10739/C07], for which the “Met Kinase % Inhibition (P.130)” value was 93.0%.

For the compound `COc1ccc(Oc2cccc(C=C3C(=O)Nc4ccc(Br)c(C)c43)c2)cc1` [10739/C08], the “Met Kinase % Inhibition (P.130)” value is reported as 9.1%.

Regarding `Cc1c(Br)ccc2c1C(=Cc1ccc(OCCCN(C)C)cc1)C(=O)N2` [10739/C09], the “Met Kinase % Inhibition (P.130)” value is recorded as 76.3%.

On to `Cc1c(Br)ccc2c1C(=Cc1ccoc1)C(=O)N2` [10739/C10], for which the “Met Kinase % Inhibition (P.130)” value was found to be 66.3%.

As to `Cc1c(Br)ccc2c1C(=Cc1ccc(CO)o1)C(=O)N2` [10739/C11], the “Met Kinase % Inhibition (P.130)” value came out at 61.0%.

As to `CNS(=O)(=O)c1ccc2c(c1)C(=Cc1ccc(OC)c(C)c1)C(=O)N2` [10739/D02], the “Met Kinase % Inhibition (P.130)” value is 29.0%.

As for `CNS(=O)(=O)c1ccc2c(c1)C(=Cc1cccc(OCc3ccccc3)c1)C(=O)N2` [10739/D03], the “Met Kinase % Inhibition (P.130)” value worked out at 15.9%.

In the case of `CNS(=O)(=O)c1ccc2c(c1)C(=Cc1ccc(OCc3ccccc3)cc1)C(=O)N2` [10739/D04], the “Met Kinase % Inhibition (P.130)” value came to 11.1%.

Regarding `CNS(=O)(=O)c1ccc2c(c1)C(=CC1COc3ccccc3O1)C(=O)N2` (stereo not shown) [10739/D05], the “Met Kinase % Inhibition (P.130)” value is listed as 30.0%.

As to `CNS(=O)(=O)c1ccc2c(c1)C(=Cc1ccc(O)cc1Cl)C(=O)N2` [10739/D06], the “Met Kinase % Inhibition (P.130)” value came out at 59.2%.

On to `CNS(=O)(=O)c1ccc2c(c1)C(=Cc1cc(O)c(O)c(O)c1)C(=O)N2` [10739/D07], for which the “Met Kinase % Inhibition (P.130)” value was found to be 86.0%.

As for `CNS(=O)(=O)c1ccc2c(c1)C(=Cc1cccc(Oc3ccc(OC)cc3)c1)C(=O)N2` [10739/D08], the “Met Kinase % Inhibition (P.130)” value worked out at 5.2%.

In the case of `CNS(=O)(=O)c1ccc2c(c1)C(=Cc1ccc(OCCCN(C)C)cc1)C(=O)N2` [10739/D09], the “Met Kinase % Inhibition (P.130)” value was found to be 66.7%.

Turning to `COc1ccc(C=C2C(=O)Nc3ccc(S(=O)(=O)Nc4ccc(C(F)(F)F)cc4)cc32)cc1C` [10739/E02], the “Met Kinase % Inhibition (P.130)” value worked out at 30.0%.

In the case of `O=C1Nc2ccc(S(=O)(=O)Nc3ccc(C(F)(F)F)cc3)cc2C1=Cc1cccc(OCc2ccccc2)c1` [10739/E03], the “Met Kinase % Inhibition (P.130)” value is on record as −3.4%.

As to `O=C1Nc2ccc(S(=O)(=O)Nc3ccc(C(F)(F)F)cc3)cc2C1=Cc1ccc(OCc2ccccc2)cc1` [10739/E04], the “Met Kinase % Inhibition (P.130)” value is on record as −15.2%.

Regarding `O=C1Nc2ccc(S(=O)(=O)Nc3ccc(C(F)(F)F)cc3)cc2C1=CC1COc2ccccc2O1` (stereo not shown) [10739/E05], the “Met Kinase % Inhibition (P.130)” value turned out to be 8.9%.

For `O=C1Nc2ccc(S(=O)(=O)Nc3ccc(C(F)(F)F)cc3)cc2C1=Cc1ccc(O)cc1Cl` [10739/E06], the “Met Kinase % Inhibition (P.130)” value stood at 66.3%.

With `O=C1Nc2ccc(S(=O)(=O)Nc3ccc(C(F)(F)F)cc3)cc2C1=Cc1cc(O)c(O)c(O)c1` [10739/E07], the “Met Kinase % Inhibition (P.130)” value is listed as 94.0%.

As for `COc1ccc(Oc2cccc(C=C3C(=O)Nc4ccc(S(=O)(=O)Nc5ccc(C(F)(F)F)cc5)cc43)c2)cc1` [10739/E08], the “Met Kinase % Inhibition (P.130)” value was found to be 16.1%.

With `CN(C)CCCOc1ccc(C=C2C(=O)Nc3ccc(S(=O)(=O)Nc4ccc(C(F)(F)F)cc4)cc32)cc1` [10739/E09], the “Met Kinase % Inhibition (P.130)” value came to 33.8%.

Consider `O=C1Nc2ccc(S(=O)(=O)Nc3ccc(C(F)(F)F)cc3)cc2C1=Cc1ccoc1` [10739/E10], for which the “Met Kinase % Inhibition (P.130)” value was 71.9%.

In the case of `O=C1Nc2ccc(S(=O)(=O)Nc3ccc(C(F)(F)F)cc3)cc2C1=Cc1ccc(CO)o1` [10739/E11], the “Met Kinase % Inhibition (P.130)” value turned out to be 76.9%.

With `COc1ccc(C=C2C(=O)Nc3ccc(S(=O)(=O)N4CCOCC4)cc32)cc1C` [10739/F02], the “Met Kinase % Inhibition (P.130)” value stood at 50.8%.

For the compound `O=C1Nc2ccc(S(=O)(=O)N3CCOCC3)cc2C1=Cc1cccc(OCc2ccccc2)c1` [10739/F03], the “Met Kinase % Inhibition (P.130)” value stood at 38.8%.

Take `O=C1Nc2ccc(S(=O)(=O)N3CCOCC3)cc2C1=Cc1ccc(OCc2ccccc2)cc1` [10739/F04]: the “Met Kinase % Inhibition (P.130)” value amounted to 30.4%.

For `O=C1Nc2ccc(S(=O)(=O)N3CCOCC3)cc2C1=CC1COc2ccccc2O1` (stereo not shown) [10739/F05], the “Met Kinase % Inhibition (P.130)” value is on record as −5.4%.

Consider `O=C1Nc2ccc(S(=O)(=O)N3CCOCC3)cc2C1=Cc1ccc(O)cc1Cl` [10739/F06], for which the “Met Kinase % Inhibition (P.130)” value is 56.3%.

With `O=C1Nc2ccc(S(=O)(=O)N3CCOCC3)cc2C1=Cc1cc(O)c(O)c(O)c1` [10739/F07], the “Met Kinase % Inhibition (P.130)” value was 100.5%.

As to `COc1ccc(Oc2cccc(C=C3C(=O)Nc4ccc(S(=O)(=O)N5CCOCC5)cc43)c2)cc1` [10739/F08], the “Met Kinase % Inhibition (P.130)” value came out at 13.4%.

Regarding `CN(C)CCCOc1ccc(C=C2C(=O)Nc3ccc(S(=O)(=O)N4CCOCC4)cc32)cc1` [10739/F09], the “Met Kinase % Inhibition (P.130)” value was −7.0%.

For the compound `O=C1Nc2ccc(S(=O)(=O)N3CCOCC3)cc2C1=Cc1ccoc1` [10739/F10], the “Met Kinase % Inhibition (P.130)” value amounted to 40.4%.

On to `O=C1Nc2ccc(S(=O)(=O)N3CCOCC3)cc2C1=Cc1ccc(CO)o1` [10739/F11], for which the “Met Kinase % Inhibition (P.130)” value was determined as 40.9%.

In the case of `COc1ccc(C=C2C(=O)Nc3ccc(CCCl)cc32)cc1C` [10739/G02], the “Met Kinase % Inhibition (P.130)” value is reported as 12.9. %.

Turning to `O=C1Nc2ccc(CCCl)cc2C1=Cc1cccc(OCc2ccccc2)c1` [10739/G03], the “Met Kinase % Inhibition (P.130)” value was 9.3%.

`O=C1Nc2ccc(CCCl)cc2C1=Cc1ccc(OCc2ccccc2)cc1` [10739/G04]: the “Met Kinase % Inhibition (P.130)” value is on record as 4.1%.

As to `O=C1Nc2ccc(CCCl)cc2C1=CC1COc2ccccc2O1` (stereo not shown) [10739/G05], the “Met Kinase % Inhibition (P.130)” value was found to be 27.7%.

Take `O=C1Nc2ccc(CCCl)cc2C1=Cc1ccc(O)cc1Cl` [10739/G06]: the “Met Kinase % Inhibition (P.130)” value is recorded as 27.7%.

Consider `O=C1Nc2ccc(CCCl)cc2C1=Cc1cc(O)c(O)c(O)c1` [10739/G07], for which the “Met Kinase % Inhibition (P.130)” value came out at 92.6%.

Regarding `COc1ccc(Oc2cccc(C=C3C(=O)Nc4ccc(CCCl)cc43)c2)cc1` [10739/G08], the “Met Kinase % Inhibition (P.130)” value worked out at 20.9%.
